Structures can show the parent of a compound that is named as a salt. Where two headings read alike, the source gives them in different places.
Tests used:
[1] = molecular target: T1, Human DYRK1B (Homo sapiens, UniProt Q9Y463); assay: DYRK1B Kinase TR-FRET (IMAP-Tb) Assay; assay type: biochemical
T1 construct: purchased Invitrogen PR8350B (former PV4649)
From the text: DYRK1B Kinase TR-FRET (IMAP-Tb) Assay Assay Principle The kinase TR-FRET (IMAP-Tb) assay uses a fluorescence labeled substrate peptide in the kinase reaction. Upon phosphorylation by the kinase, phosphopeptide is produced, which will be detected by the binding solution provided in IMAP TR-FRET binding kit. After the completion of the kinase reaction, the reaction will be stopped by adding the binding solution containing terbium tracer. This tracer is immobilized on the surface of the IMAP beads, which also contain metal ions on the beads that bind to the phospho-groups of the products. Thus the phosphorylated product of the reaction can enter into close proximity to the tracer, producing resonance energy transfer. Due to the long lifetime of terbium (Tb) fluorescence the detection can be run in time resolved mode, which virtually eliminates fluorescence interference from assay components or compounds. The TR-FRET signal measurement from this assay, given as an IC50 measurement, is a measure of a test compound's ability to interfere with the phosphorylation of the peptide substrate, that is it inhibits the phosphorylation of the substrate peptide by DYRK1B, and is thus a measure of the test compound's ability to inhibit the activity of DYRK1B. IC50 is the amount of test compound that inhibits 50% of the activity of DYRK1B in this assay. In some cases where the IC50 was not determined, then the % inhibition at 10 μM test compound concentration may be reported. Materials and Reagents • 1. Human DYRK1B: from Invitrogen. Part #PR8350B (former PV4649) • 2. Substrate Peptide: in-house synthesized: RRRFRPASPLRGPPK • 3. IMAP TR-FRET IPP Explorer Kit: from Molecular Devices. Part #R8157 • 4. Kinase Assay Buffer (KAB): 10 mM HEPES pH 7.0, 50 mM NaCl, 5 mM MgCl2, 1 mM DTT, 1 mM NaVO4, 200 μg/mL BSA (0.02%) • 5. Assay Plate: Remp polypropylene clear 384-well microplate. Cat#23490-102 • 6. Detection Plate: Costa black 384-well microplate. Cat #3710 Assay Procedure: this Assay was Performed as Follows: • 1. Transfer 1.5 μL of 20× compound solution to each well of an assay plate. • 2. Add to each well 22.5 μL of KAB Buffer. • 3. Add to each well 3 μL of the solution of DYRK1B and ATP. […] Add to each well 3 μL of the substrate peptide. The assay concentration is 1.0 μM • 5. Incubate the assay plates at 37° C. for 60 minutes. • 6. Add 18 μL of Detection Solution (1:800 diluted Progress bead stock, 1:400 diluted Tb stock, 80% Buffer A, and 20% Buffer B) into each well of detection plates. • 7. Transfer 6 μL of assay solution from the assay plate to the detection plate. • 8. Shake detection plates for 30 minutes. • 9. Read plates in Envision with wavelength set at excitation 340 nm for Tb, emission 490 nm, and […] 520 nm. • 10. Calculation: TR-FRET Signal=(Reading at […]/Reading at 490 nM)×2000000

[2] = molecular target: T2, Human DYRK1A (Homo sapiens, UniProt Q13627); assay: DYRK1A Kinase TR-FRET (IMAP-Tb) Assay; assay type: biochemical; conditions: TR-FRET (IMAP-Tb); ATP 70 μM; 37° C. for 60 minutes; averages of multiple runs; read-out: Enzyme IC50 (μM) DYRK1A
T2 construct: purchased Invitrogen PV3997
From the text: DYRK1A Kinase TR-FRET (IMAP-Tb) Assay
The kinase TR-FRET (IMAP-Tb) assay uses a fluorescence labeled substrate peptide in the kinase reaction. Upon phosphorylation by the kinase, phosphopeptide is produced, which will be detected by the binding solution provided in IMAP TR-FRET binding kit. After the completion of the kinase reaction, the reaction will be stopped by adding the binding solution containing terbium tracer. This tracer is immobilized on the surface of the IMAP beads, which also contain metal ions on the beads that bind to the phospho-groups of the products. Thus the phosphorylated product of the reaction can enter into close proximity to the tracer, producing resonance energy transfer. Due to the long lifetime of terbium (Tb) fluorescence the detection can be run in time resolved mode, which virtually eliminates fluorescence interference from assay components or compounds.
The TR-FRET signal measurement from this assay, given as an IC50 measurement, is a measure of a test compound's ability to interfere with the phosphorylation of the peptide substrate, that is it inhibits the phosphorylation of the substrate peptide by DYRK1A, and is thus a measure of the test compound's ability to inhibit the activity of DYRK1A.
Materials and Reagents • 1. Human DYRK1A: from Invitrogen. Part #PV3997 • 2. Substrate Peptide: […] • 3. IMAP TR-FRET IPP Explorer Kit: from Molecular Devices. Part #R8157 • 4. Kinase Assay Buffer (KAB): 10 mM HEPES pH 7.0, 50 mM NaCl, 5 mM MgCl2, 1 mM DTT, 1 mM NaVO4, 200 ug/mL BSA (0.02%) • 5. Assay Plate: Remp polypropylene clear 384-well microplate. […] Detection Plate: Costa black 384-well microplate.
Assay Procedure: this Assay was Performed as Follows: • 1. Transfer 1.5 μL of 20× compound solution to each well of an assay plate. • 2. Add to each well 22.5 μL of KAB Buffer. • 3. Add to each well 3 μL of the solution of DYRK1A and ATP. […] Add to each well 3 μL of the substrate peptide. The assay concentration is 1.0 μM • 5. Incubate the assay plates at 37° C. for 60 minutes. • 6. Add 18 μL of Detection Solution (1:800 diluted Progress bead stock, 1:400 diluted Tb stock, 80% Buffer A, and 20% Buffer B) into each well of detection plates. • 7. Transfer 6 μL of assay solution from the assay plate to the detection plate. • 8. Shake detection plates for 30 minutes. • 9. Read plates in Envision with wavelength set at excitation 340 nm for Tb, emission 490 nm, and […] 520 nm. • 10.

[3] = tested on: SW620 human colon cancer cells; assay: SW620 Cell Viability Assay; assay type: cell-based; conditions: SW-620, 96 h, CellTiter-Glo Luminescent Cell Viability Assay, 4 days incubation, read-out: Cellular EC50 (μM) SW620
Procedure: SW620 Cell Viability Assay
1. Cell Plate Preparation: SW620 human colon cancer cells (known to express DYRK1B), obtained from ATCC, were seeded into 96-well plates at 3×10^3 cells/well in 50 μL of media. • Harvested the required number of cells (counts & viability determined by Guava Viacount). • Centrifuge cells to pellet and removed supernant. • Resuspended in growth media (50 μL/well) & pipetted thoroughly to break up clumps. • Setup for ˜100 wells/plate, therefore, VT=5 mL/plate @ […].
1A. Some cells (S—) were allowed to attach for 24 hrs, serum starved for 48 hrs, and then followed with test compound treatments.
Test compound solution were prepared in regular corresponding media supplemented with serum.
2. Test compound Preparation: Drugs were solubilized in either DMSO or media and prepared at various stock concentrations. • All compounds were incubated at 37° C. for 30 minutes and vortexed. • (5 mM stocks of test compound were prepared for non-soluble test compounds)
3. Test compound Plate Preparation: • The 10 mM test compound stock was diluted to a concentration of 100× the final Cmax concentration. • Then the test compound stock is diluted 50-fold in media and/or second test compound for a final Cmax concentration in the test compound plate. • The Cmax in the test compound plate (2% DMSO) is 2-fold higher than the final Cmax in the cell plate (60 μl, titrations were 1:3).
4. Viability Assay: This assay was performed as follows: • Transfer 50 μL of test compound solution per well from the test compound plate onto the cell plate prepared in Step #1. • Mix the plate with treated cells by pipetting up and down three times with 200 μL multi-channel pipette. • Incubate the cells in 5% CO2 incubator @ 37° C. for 4 days. • Run the CellTiter-Glo™ Luminescent Cell Viability Assay.
The results of this assay, given as EC50 values, indicate the concentration of test compound that inhibits tumor cell proliferation by 50%.

[4] = TR-FRET (IMAP-Tb), ATP 70 μM, 37° C. for 60 minutes, averages of multiple runs, read-out: Enzyme IC50 (μM) DYRK1B

T1 sequence (Q9Y463 whole entry): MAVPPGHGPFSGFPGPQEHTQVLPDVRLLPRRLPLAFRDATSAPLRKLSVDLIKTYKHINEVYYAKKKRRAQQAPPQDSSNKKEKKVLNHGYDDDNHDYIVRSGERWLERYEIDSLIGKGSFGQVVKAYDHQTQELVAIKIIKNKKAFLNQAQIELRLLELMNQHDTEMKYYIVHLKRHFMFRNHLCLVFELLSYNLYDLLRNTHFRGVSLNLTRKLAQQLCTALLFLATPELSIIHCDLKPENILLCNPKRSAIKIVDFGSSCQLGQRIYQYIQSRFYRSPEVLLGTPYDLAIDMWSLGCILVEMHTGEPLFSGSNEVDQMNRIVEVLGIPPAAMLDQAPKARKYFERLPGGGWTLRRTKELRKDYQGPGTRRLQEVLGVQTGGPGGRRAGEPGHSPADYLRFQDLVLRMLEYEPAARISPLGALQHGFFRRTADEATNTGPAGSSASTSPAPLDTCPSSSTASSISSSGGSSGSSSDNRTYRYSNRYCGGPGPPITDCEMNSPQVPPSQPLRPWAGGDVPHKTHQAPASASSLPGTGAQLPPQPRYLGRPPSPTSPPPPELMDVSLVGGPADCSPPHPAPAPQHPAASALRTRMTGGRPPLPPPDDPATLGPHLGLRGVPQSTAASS

SMILES	IC50 [1, 4] [µM]	IC50 [2] [µM]	EC50 [3] [µM]	IC50 [1] [µM]
Clc1cccc(CNc2cccc(-c3n[nH]c4nc(NCCN5CCOCC5)ncc34)n2)c1 [Example 47, {3-[6-(3-Chloro-benzylamino)-pyridin-2-yl]-1H-pyrazolo[3,4-d]pyrimidin-6-yl}-(2-morpholin-4-yl-ethyl)-amine]	1.06	1.39	> 10	–
N[C@H]1CC[C@H](Nc2ncc3c(-c4cccc(NCc5ccccc5)n4)n[nH]c3n2)CC1 [Example 49, N-[3-(6-Benzylamino-pyridin-2-yl)-1H-pyrazolo[3,4-d]pyrimidin-6-yl]-cyclohexane-1,4-diamine]	0.101	0.0124	1.71	–
N[C@H]1CC[C@H](Nc2ncc3c(-c4cccc(NCc5ccccc5)c4)n[nH]c3n2)CC1 [Example 52, N-[3-(3-Benzylamino-phenyl)-1H-pyrazolo[3,4-d]pyrimidin-6-yl]-cyclohexane-1,4-diamine]	0.241	0.594	0.923	–
N[C@H]1CC[C@H](Nc2ncc3c(-c4cccc(NCc5cccs5)c4)n[nH]c3n2)CC1 [Example 53, N-(3-{3-[(Thiophen-2-ylmethyl)-amino]-phenyl}-1H-pyrazolo[3,4-d]pyrimidin-6-yl)-cyclohexane-1,4-diamine]	0.183	0.405	1.84	–
c1cc(NCc2cccs2)cc(-c2n[nH]c3nc(NCCN4CCOCC4)ncc23)c1 [Example 54, (2-Morpholin-4-yl-ethyl)-(3-{3-[(thiophen-2-ylmethyl)-amino]-phenyl}-1H-pyrazolo[3,4-d]pyrimidin-6-yl)-amine]	4.96	3.85	> 10	–
N[C@H]1CC[C@H](Nc2ncc3c(-c4cccc(NCc5ccc(Cl)cc5)c4)n[nH]c3n2)CC1 [Example 55, N-{3-[3-(4-Chloro-benzylamino)-phenyl]-1H-pyrazolo[3,4-d]pyrimidin-6-yl}-cyclohexane-1,4-diamine]	0.181	0.502	1.85	–
N[C@H]1CC[C@H](Nc2ncc3c(-c4cccc(NCc5ccccc5Cl)c4)n[nH]c3n2)CC1 [Example 56, N-{3-[3-(2-Chloro-benzylamino)-phenyl]-1H-pyrazolo[3,4-d]pyrimidin-6-yl}-cyclohexane-1,4-diamine]	0.194	0.346	4.1	–
Clc1ccccc1CNc1cccc(-c2n[nH]c3nc(NCCN4CCOCC4)ncc23)c1 [Example 57, {3-[3-(2-Chloro-benzylamino)-phenyl]-1H-pyrazolo[3,4-d]pyrimidin-6-yl}-(2-morpholin-4-yl-ethyl)-amine]	1.55	2.62	> 10	–
N[C@H]1CC[C@H](Nc2ncc3c(-c4cccc(NCc5ccsc5)c4)n[nH]c3n2)CC1 [Example 58, N-(3-{3-[(Thiophen-3-ylmethyl)-amino]-phenyl}-1H-pyrazolo[3,4-d]pyrimidin-6-yl)-cyclohexane-1,4-diamine]	0.762	2.61	6.41	–
Clc1ccccc1CNc1cccc(-c2n[nH]c3nc(NCCN4CCOCC4)ncc23)n1 [Example 59, {3-[6-(2-Chloro-benzylamino)-pyridin-2-yl]-1H-pyrazolo[3,4-d]pyrimidin-6-yl}-(2-morpholin-4-yl-ethyl)-amine]	0.924	0.663	> 10	–
NCC(Nc1nccc(-c2n[nH]c3nc(NCCN4CCOCC4)ncc23)n1)c1ccccc1 (centres unmarked) [Example 83, N1-{4-[6-(2-Morpholin-4-yl-ethylamino)-1H-pyrazolo[3,4-d]pyrimidin-3-yl]-pyrimidin-2-yl}-1-phenyl-ethane-1,2-diamine; hydrochloride]	–	–	0.56	0.0183
OCCNc1ncc2c(-c3ccnc(NCc4cccc(Cl)c4)n3)n[nH]c2n1 [Example 91, 2-{3-[2-(3-Chloro-benzylamino)-pyrimidin-4-yl]-1H-pyrazolo[3,4-d]pyrimidin-6-ylamino}-ethanol; hydrochloride]	0.183	0.25	–	–
Clc1cccc(CNc2nccc(-c3n[nH]c4nc(NCCN5CCNCC5)ncc34)n2)c1 [Example 92, {3-[2-(3-Chloro-benzylamino)-pyrimidin-4-yl]-1H-pyrazolo[3,4-d]pyrimidin-6-yl}-(2-piperazin-1-yl-ethyl)-amine; hydrochloride]	0.057	0.076	–	–
Clc1cccc(CNc2nccc(-c3n[nH]c4nc(NCCN5CCCCC5)ncc34)n2)c1 [Example 93, hydrochloride]	0.93	0.46	–	–
